From PMC12033364, “Emergence of transferable daptomycin resistance in Gram-positive bacteria” (npj Antimicrobials and Resistance, 2025)

Tests used:
S. aureus RN4220 = assay: DAP MIC, micro-broth dilution, plasmid-carrying strains; type: cell-based, Staphylococcus aureus; conditions: MH + 50 µg/mL CaCl2, 18 h 37 °C, three biological replicates
Procedure: (§1) Bacteria were grown in Muller-Hinton broth (MH) (Carl Roth GmbH + Co. KG, Karlsruhe, Germany) and over-night cultures supplemented with antibiotics when required. […] For transcription profiling experiments, bacteria were exposed to 128 µg/mL DAP for 30 min. All strains, except bacilli (30 °C), were incubated at 37 °C.
(§2) Recombinant plasmids (Table S1) were generated by in vitro E. coli cloning method, employing shuttle vector pCG248 as backbone and E. coli DC10B as host. After recovery from E. coli, recombinant plasmids were transformed into S. aureus or B. subtilis via electroporation.
(§3) The cultures were adjusted to 5 × 10^5 CFU/mL and transferred to a 96-well flat bottom microtiter plate (Greiner Bio-One GmbH, Frickenhausen, Germany). 100 ng/mL anhydrotetracycline (ATc) (Carl Roth GmbH + Co. KG, Karlsruhe, Germany) was added if required; ATc-containing plates were stored in the dark. Plates were incubated for 18 h at 37 °C (24 h at 30 °C for bacilli) under static conditions. Afterwards, the OD595 was measured to determine the MIC according to EUCAST guidelines.

S. aureus USA300 LAC* = assay: DAP MIC, micro-broth dilution, plasmid-carrying MRSA strains; type: cell-based, Staphylococcus aureus; conditions: MH + 50 µg/mL CaCl2, 18 h 37 °C, three biological replicates
Procedure: as §1, §2, §3

B. subtilis 168 = assay: DAP MIC, micro-broth dilution, plasmid-carrying strains; type: cell-based, Bacillus subtilis
Procedure: as §1, §2, §3

[1] = tested on: drcA and drcB (TS92_00079, TS92_00080) in M. sciuri TS92; assay: Transcription profiling (RNA-Seq) upon DAP exposure; type: cell-based, Mammaliicoccus sciuri; conditions: M. sciuri TS92 exposed to 128 µg/mL DAP for 30 min, three biological replicates, DESeq2
Procedure: An overnight culture of M. sciuri TS92 was diluted in fresh MH to an optical density at 600 nm (OD600) of 0.05 and grown to OD600 0.5. The culture was split into 10 mL each aliquots and incubated in the absence and presence of 128 µg/mL DAP for 30 min. Subsequently, total RNA extraction was performed as described previously.
RNA was isolated from three biological replicates. RNA quality was checked using a 2100 Bioanalyzer with the RNA 6000 Nano Kit (Agilent Technologies, Santa Clara, USA). cDNA libraries suitable for sequencing were prepared from 1000 ng of total RNA after DNase I treatment (Thermo Fisher, Darmstadt, Germany). […] The number of PCR cycles was determined at 14 by qPCR and the elongation time was set to 15 s. Libraries were quantified by Qubit^TM dsDNA HS Assay Kit and Qubit^TM 3.0 Fluorometer (ThermoFisher), and quality was checked using 2100 Bioanalyzer with the High Sensitivity DNA Kit (Agilent Technologies) before pooling. Sequencing of pooled libraries, spiked with 5% PhiX control library, was performed at ~11–15 million reads per sample in single-end mode with 75 nucleotide read length on the NextSeq 500 platform (Illumina, San Diego, CA, USA). […] Afterwards, the pipeline READemption v0.4.5[59] was applied to align all reads longer than 11 nt (-l 12) to our de novo assembled M. sciuri TS92 genome using segemehl v0.2.0[60] with an accuracy cut-off of 95% (-a 95). […]

[2] = tested on: Enterococcus faecalis CVM N59689F; conditions: E. faecalis CVM N59689F, drc-carrying isolate from market swine; cited from earlier work
Excerpt: Table 1 Detection of the drc locus (drcRS/drcAB) in staphylococci and enterococci | column: DAP MIC (µg/mL) || Another bottleneck in clinical AMR development is that AMR genes from environmental microorganisms must gain access to pathogenic species. This requires donors and recipients to come into close physical contact, which is often challenging as pathogenic and environmental species rarely share the same ecological niche. In this respect, M. sciuri may play a crucial role in drc acquisition and spread. Due to its dual lifestyle as a soil bacterium and animal commensal, M. sciuri comes into contact with both the soil resistome and commensal bacteria associated with warm-blooded hosts, making M. sciu ...

For CCCCCCCCCC(=O)N[C@@H](Cc1c[nH]c2ccccc12)C(=O)N[C@H](CC(N)=O)C(=O)N[C@@H](CC(=O)O)C(=O)N[C@@H]1C(=O)NCC(=O)N[C@@H](CCCN)C(=O)N[C@@H](CC(=O)O)C(=O)N[C@H](C)C(=O)N[C@@H](CC(=O)O)C(=O)NCC(=O)N[C@H](CO)C(=O)N[C@@H]([C@H](C)CC(=O)O)C(=O)N[C@@H](CC(=O)c2ccccc2N)C(=O)O[C@@H]1C [DAP, Daptomycin], the “DAP MIC” value (S. aureus RN4220; S. aureus RN4220_Pxyl/tet-drcAB + ATc (100 ng/mL, induced)) was 64 µg/mL, the “DAP MIC” value (S. aureus RN4220; S. aureus RN4220_drcRS/drcAB (entire drc locus, native drcRS control, plasmid)) was 64 µg/mL and the “DAP MIC” value (S. aureus RN4220; S. aureus RN4220_empty vector control) was 1 µg/mL. The “DAP MIC” value (S. aureus USA300 LAC*; S. aureus USA300 LAC*_Pxyl/tet-drcAB + ATc (induced)) was 32 µg/mL, the “DAP MIC” value (S. aureus USA300 LAC*; S. aureus USA300 LAC*_drcRS/drcAB (entire drc locus on plasmid)) was 128 µg/mL and the “DAP MIC” value (S. aureus USA300 LAC*; S. aureus USA300 LAC*_empty vector control) was 1 µg/mL. For the same compound, the “DAP MIC” value (B. subtilis 168; B. subtilis 168_Pxyl/tet-drcAB + ATc (induced), MH + 50 µg/mL CaCl2, 24 h 30 °C, three biological replicates) was 16 µg/mL, the “DAP MIC” value (B. subtilis 168; B. subtilis 168_drcRS/drcAB (entire drc locus on plasmid), MH + 50 µg/mL CaCl2, 24 h 30 °C, three biological replicates) was over 256 µg/mL and the “DAP MIC” value (B. subtilis 168; B. subtilis 168 as worded in the text, before induction of drcAB expression) was 2 µg/mL. The “up-regulation of drcA and drcB transcription upon DAP exposure versus untreated control” value [1] was 128 fold change and the “DAP MIC” value [2] was over 16 µg/mL.
